Measured values from patent publication US20150250746A1, “ACAMPROSATE FORMULATIONS, METHODS OF USING THE SAME, AND COMBINATIONS COMPRISING THE SAME” (Synchroneuron Inc., priority 2013, published 2015).

What was measured:
[1] = system: cultured rat hippocampus neurons; test: Organotypic hippocampal slice model of glutamate neurotoxicity; type: cell-based; settings: 200 μM calcium acamprosate 8 hr or 5 days, removed from medium for up to eight hours
Protocol: The study is designed to test whether pre-treatment with acamprosate can have long-term neuronal protective effects against glutamate neurotoxicity. The study uses an in vitro organotypic hippocampal slice model. The study assesses whether less than 24 hours per day of exposure to a sufficient level of acamprosate can offer 24-hour therapeutic actions in neuropsychiatric disorders. […] This supports, among other things, the therapeutic use of acamprosate in neuropsychiatric disorders because the latter are related to the effect of acamprosate to decrease glutamate effects at NMDA and metabotropic glutamate receptors.
Hippocampal slices derived from 8-day-old Sprague Dawley rats are plated and subsequently exposed to a relatively acute (8 hour) or more chronic (5 day) acamprosate treatment. The slices are then removed from the medium containing acamprosate and returned to control medium for either 1 or 8 hours. […] The slices are then placed in normal medium with propidium iodide for 24 hr and assessed for neurotoxicity/neuroprotection as described below. […]
Neurotoxicity/neuroprotection assessment: For the final medium change, the plates are moved into normal media containing propidium iodide (PI) added to each well for 24 hours. PI only penetrates cell membranes of damaged or potentially dying cells, binding to DNA to produce a bright, intensified red fluorescence at 630 nm. […]

[2] = cited from earlier work
abnormal movements = test: Transgenic mouse models with movement disorders and hyperglutamatergic states; type: in vivo; settings: steadily-maintained blood level; Per2(Brdm1) deletion or ENT1(-/-) mice
[3] = in vivo; cited from earlier work
[4] = system: abnormal chewing movements; test: Rat model of tardive dyskinesia (haloperidol-induced abnormal chewing movements); type: in vivo; settings: steadily-maintained blood level; haloperidol-exposed rats
Protocol: Acamprosate is tested using a rat model of tardive dyskinesia looking at abnormal chewing movements produced in rats by exposing them for several weeks to haloperidol, a potent first-generation neuroleptic. […] Rats then are dosed with acamprosate in a way that matches the therapeutic blood level for no more than 12 hours out of 24, to confirm that this reduces the involuntary movements.

tardive dyskinesia = test: Clinical cases: acamprosate in patients with tardive dyskinesia; type: in vivo, human; settings: for relief of TD involuntary movements: Case 2
Protocol: Case 1: A person had long-standing tardive dyskinesia induced by treatment of schizoaffective disorder with a variety of neuroleptics and mood stabilizers. Their TD was characterized by side to side movements of the jaw, grimacing movements, rocking of the trunk, and continual involuntary kicking, leg-crossing, and twisting movements of their legs and feet. At the time they presented for treatment of their TD they were treated for their mental illness with lamotrigine and quetiapine, a second-generation neuroleptic.
To test the hypothesis that the efficacy of acamprosate was related to adequate time above a threshold blood level the patient was asked to try taking 1332 mg of acamprosate once a day.
CASE 2: A person had been treated with acamprosate for several years for TD due to exposure to several neuroleptics for schizoaffective disorder. They were currently treated with lamotrigine and quetiapine for their mental illness, and was taking acamprosate 1032 mg+999 mg+1032 mg on a three times daily basis. […] To test the therapeutic threshold hypothesis the patient was asked to try 1032 mg of acamprosate once a day in the morning. […] They noted that when they got relief of their involuntary movements they also had less anxiety and agitation than when the movements were present.

[5] = Gastric retention of swellable acamprosate tablet in dog model, induction of fed mode with alpha-lipoic acid; type: in vivo; settings: of 800 mg swellable acamprosate tablet after 125 mg alpha-lipoic acid given 15 minutes before; four beagle dogs

| Structure (SMILES) | protection of neurons from challenge with a toxic level of a glutamate agonist [1] | solubility [2] | solubility in gastric juice [2] | abnormal movements (abnormal movements) | decrease of bioavailability by food [3] | abnormal chewing movements [4] | relief of TD symptoms (tardive dyskinesia; Case 1, 666 mg three times a day) | relief of TD symptoms (tardive dyskinesia; Case 1, 999 mg three times a day) | anxiety and agitation (tardive dyskinesia; Case 1, 999 mg three times a day with perphenazine) | relief of TD symptoms (tardive dyskinesia; Case 1, 1332 mg once a day) | side effects (tardive dyskinesia; Case 1, 1332 mg once a day) | relief of TD involuntary movements (tardive dyskinesia; 999 mg three times a day) | relief of TD involuntary movements (tardive dyskinesia; 1032 mg morning plus second dose of 1032 mg 8 to 10 hours later) | relief of TD involuntary movements (tardive dyskinesia; 1032 mg once a day in the morning) | relief of TD involuntary movements (tardive dyskinesia; 1032 mg+999 mg+1032 mg three times daily) | Average gastric retention time [5] [h] | Maximum gastric retention time [5] [h] | Minimum gastric retention time [5] [h] |
| --- | --- | --- | --- | --- | --- | --- | --- | --- | --- | --- | --- | --- | --- | --- | --- | --- | --- | --- |
| CC(=O)NCCCS(=O)(=O)O [acamprosate, calcium N-acetylhomotaurinate] | persistent effect | high solubility | immediately and completely soluble | reduce or eliminate the abnormal movements | approximately 30% | reduce or eliminate the abnormal movements | partial relief of symptoms | complete relief of their TD | relief of anxiety and agitation | free of involuntary movements of TD | significant GI side effects of diarrhea and abdominal cramps | did not give full relief | complete relief of symptoms | free of movements in the morning and early afternoon but movements returned in the evening | completely relieved their involuntary movements of TD | – | – | – |
| O=C(O)CCCCC1CCSS1 (stereo not drawn) [alpha-lipoic acid] | – | – | – | – | – | – | – | – | – | – | – | – | – | – | – | 2.8 | 5 | 1.5 |
